In ChEMBL document CHEMBL1122857, “A uniquely potent renin inhibitor and its unanticipated plasma binding component” (J Med Chem, 1985):
Non-standard residues stand in square brackets, D forms with d. Residues, ends and D or L forms follow the SMILES beside them. *: point of attachment. Sta = CC(C)C[C@H](N)[C@@H](O)CC(=O)O; X1 = c1ccc(CN2CCC(N*)CC2)cc1; Boc = CC(C)(C)OC(=O)*

Key:
Renin [1] = target: T1, Renin (Homo sapiens, UniProt P00797); assay: Compound was tested for inhibition of human kidney renin
T1 sequence (P00797 whole entry): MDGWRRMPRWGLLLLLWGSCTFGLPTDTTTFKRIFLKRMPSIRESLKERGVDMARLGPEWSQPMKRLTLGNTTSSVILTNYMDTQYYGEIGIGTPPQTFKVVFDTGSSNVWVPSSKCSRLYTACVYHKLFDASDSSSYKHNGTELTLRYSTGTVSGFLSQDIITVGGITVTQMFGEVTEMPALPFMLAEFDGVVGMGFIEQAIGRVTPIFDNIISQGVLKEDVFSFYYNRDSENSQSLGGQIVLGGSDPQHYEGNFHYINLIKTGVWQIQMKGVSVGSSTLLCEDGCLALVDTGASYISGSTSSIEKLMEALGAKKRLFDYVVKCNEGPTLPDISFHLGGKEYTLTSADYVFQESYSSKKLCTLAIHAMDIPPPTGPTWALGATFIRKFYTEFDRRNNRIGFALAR

Renin (Homo sapiens) = target: T2, Renin (Homo sapiens) (UniProt P00797); assay: (§1) Compound was tested for inhibition of human plasma renin; type: cell-free; details: concentration not given here
T2 sequence (whole entry): T1 sequence (P00797 whole entry)

Renin [2] = target: T1, Renin; assay: as §1; type: cell-free; details: read-out: I50
Renin (Sus scrofa) = assay: Compound was tested for inhibition of hog kidney renin; details: read-out: I50

Ki (Renin [1]) [nM]	inhibition (Renin (Homo sapiens)) [%]	IC50 (Renin [2]) [nM]	IC50 (Renin (Sus scrofa)) [nM]	SMILES
0.026	37	1000	858	CC(C)C[C@@H](CNCc1ccccc1)NC(=O)C[C@H](O)[C@H](CC(C)C)NC(=O)[C@H](Cc1ccccc1)NC(=O)[C@H](Cc1ccccc1)NC(=O)OC(C)(C)C
4.8			88	CC(C)C[C@H](NC(=O)C[C@H](O)[C@H](CC(C)C)NC(=O)[C@H](Cc1ccccc1)NC(=O)[C@H](Cc1ccccc1)NC(=O)OC(C)(C)C)C(=O)N[C@@H](Cc1ccccc1)C(N)=O (Boc-FF[Sta]LF-NH2)
0.064		25	269	CC(C)C[C@H](NC(=O)C[C@H](O)[C@H](CC(C)C)NC(=O)[C@H](Cc1c[nH]cn1)NC(=O)[C@H](Cc1ccccc1)NC(=O)OC(C)(C)C)C(=O)NC1CCN(Cc2ccccc2)CC1 (Boc-FH[Sta]L-X1)
